The text below walks through data of patent publication US9951088B2, “D2 receptor modulators and methods of use thereof in the treatment of diseases and disorders” (SUNOVION PHARMACEUTICALS INC., priority 2012, dated 2018).

Some results are limits rather than exact numbers.

As usually defined, the IC50 is the concentration needed to halve the response being measured. High values mean a need for much substance, low ones inhibition by little substance. For orientation: EC50 means the concentration giving half of the maximal effect. Low readings indicate higher potency in that assay, high ones lower potency in that assay.

Assay [1] deals with T1, long isoform of human D2 receptor (Homo sapiens, UniProt P14416). As to the kind of experiment: Arrestin Antagonist Assay (DRD2L PathHunter CHO-K1 cells, vs EC80 dopamine). Conditions: for Emax: CHO-K1, read-out: β-arrestin (antagonist mode) Imax.
The target in assay [2] is T1, long isoform of human D2 receptor. Put plainly: cAMP HTRF Agonist Assay (DRD2L PathHunter CHO-K1 cells, forskolin-stimulated). A general note: In TR-FRET formats the signal depends on donor and acceptor labels being close together.
Assay [3] shares this target. As to the kind of experiment: Arrestin Agonist Assay (DRD2L PathHunter CHO-K1 cells, β-arrestin recruitment). (Activated receptors often draw arrestin, which recruitment assays turn into a signal.)
Description: Cell Lines: Activities of the compounds were assessed using a Chinese Hamster Ovary (CHO—K1) cell line that recombinantly expressed the long isoform of human D2 receptor (DRD2L PathHunter cells). The D2 receptor DNA sequence was modified to contain a “ProLink” at its C-terminus which allowed complementation with an “enzyme acceptor” (EA)-tagged β-arrestin protein. The recruitment of the O-arrestin by the D2 receptor led to complementation of the ProLink and EA and formation of active β-galactosidase which generated a D2-specific signal that was measured.
Arrestin Agonist Assay: One day prior to testing, a vial of high density stock of DRD2L PathHunter cells was thawed, and 1×10^7 cells diluted into 40 mL of growth media (Ham's F12/10% HI FBS/1% PSG). 20 μL cells per well were seeded directly into assay plates, and the plates were allowed to rest for 1 h at RT before incubating in a plate incubator overnight.
5 μL diluted compound was added to cells in each well, and the assay plate was incubated for 90 min at 37° C. 12.5 μL PathHunter detection reagent was added to each well of the assay plate, which was then covered and incubated for 1 h at RT. The plate was read on an Envision reader using the Luminescence protocol, and the data were exported for analysis.
The agonist Emax results were expressed as a percent of the dopamine control response ((measured specific response/control specific agonist response)×100) obtained in the presence of test article. The EC50 values (concentration producing a half-maximal specific response) were determined by non-linear regression analysis of the concentration-response curves.
The mark [4] stands for this setting: CHO-K1, read-out: cAMP (agonist mode) Emax.
[5] abbreviates: CHO-K1, read-out: β-arrestin (agonist mode) Emax.
The mark [6] stands for this setting: CHO-K1, read-out: Emax in cAMP agonist assay.
The mark [7] stands for this setting: CHO-K1, read-out: Emax in β-arrestin agonist assay.

T1 sequence (P14416 whole entry, canonical isoform): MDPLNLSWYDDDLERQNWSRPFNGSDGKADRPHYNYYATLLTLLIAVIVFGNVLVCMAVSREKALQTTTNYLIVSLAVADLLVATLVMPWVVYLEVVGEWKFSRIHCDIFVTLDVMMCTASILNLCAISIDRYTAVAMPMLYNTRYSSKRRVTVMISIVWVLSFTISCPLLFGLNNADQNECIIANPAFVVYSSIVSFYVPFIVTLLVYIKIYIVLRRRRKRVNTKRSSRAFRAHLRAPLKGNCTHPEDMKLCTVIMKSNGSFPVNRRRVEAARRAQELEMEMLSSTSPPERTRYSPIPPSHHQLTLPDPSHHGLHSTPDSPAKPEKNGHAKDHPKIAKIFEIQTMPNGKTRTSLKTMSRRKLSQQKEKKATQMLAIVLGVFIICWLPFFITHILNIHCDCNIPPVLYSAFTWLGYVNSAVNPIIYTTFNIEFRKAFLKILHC

Regarding `Clc1cccc(N2CCN(CCCCOc3ccc4cn[nH]c4n3)CC2)c1Cl` [Compound 1, 6-(4-(4-(2,3-dichlorophenyl)piperazin-1-yl)butoxy)-1H-pyrazolo[3,4-b]pyridine], the IC50 in assay [1] and in assay [2] was under 10 nM each time. Besides, the figures for the Emax in assay [1], in assay [2] (setting [4]) and in assay [3] (setting [5]) were over 75%, 25 to 50% and under 10%, respectively. This compound also returned an EC50 in assay [3] of over 10000 nM.
As to `c1ccc2c(N3CCN(CCCCOc4ccc5cn[nH]c5n4)CC3)cccc2c1` [Compound 2, 6-(4-(4-(naphthalen-1-yl)piperazin-1-yl)butoxy)-1H-pyrazolo[3,4-b]pyridine], the 50% inhibitory concentration (IC50) in assay [1] was in the range of 100 to 1000 nM; in assay [2], 10 to 100 nM. The Emax is 50 to 75% in assay [1], 10 to 25% in assay [2] (setting [4]) and 10 to 25% in assay [3] (setting [5]). The compound further had an EC50 in assay [3] of 10 to 100 nM.
For `Cc1cccc(N2CCN(CCCCOc3ccc4cn[nH]c4n3)CC2)c1C` [Compound 3, 6-(4-(4-(2,3-dimethylphenyl)piperazin-1-yl)butoxy)-1H-pyrazolo[3,4-b]pyridine], the IC50 in assay [1] was in the range of 100 to 1000 nM; in assay [2], 10 to 100 nM. The Emax is over 75% in assay [1], 10 to 25% in assay [2] (setting [4]) and under 10% in assay [3] (setting [5]). Further, the EC50 in assay [3] is over 10000 nM.
For `c1ccc(N2CCN(CCCCOc3ccc4cn[nH]c4n3)CC2)nc1` [Compound 4, 6-(4-(4-(pyridin-2-yl)piperazin-1-yl)butoxy)-1H-pyrazolo[3,4-b]pyridine], the figures for the IC50 in assay [1] and in assay [2] were over 10000 nM and under 10 nM, respectively. Also, the Emax in assay [1] is under 10%; in assay [2] (setting [4]), over 75%; in assay [3] (setting [5]), over 75%. This compound also had an EC50 in assay [3] of 10 to 100 nM.
Take `Oc1cccc2ccc(OCCCCN3CCN(c4cccc(Cl)c4Cl)CC3)nc12` [Compound 5, 2-(4-(4-(2,3-dichlorophenyl)piperazin-1-yl)butoxy)quinolin-8-ol]: the values for the IC50 in assay [1] and in assay [2] were 100 to 1000 nM and 10 to 100 nM, respectively. Also, the Emax in assay [1] is over 75%; in assay [2] (setting [4]), 25 to 50%; in assay [3] (setting [5]), 10 to 25%. In assay [3], this compound displayed an EC50 of 10 to 100 nM.
Regarding `Oc1cccc2ccc(OCCCCN3CCN(c4cccc5ccccc45)CC3)nc12` [Compound 6, 2-(4-(4-(naphthalen-1-yl)piperazin-1-yl)butoxy)quinolin-8-ol], the IC50 in assay [1] lay in the range of 100 to 1000 nM; in assay [2], 10 to 100 nM. The Emax in assay [1] fell in the range of 50 to 75%; in assay [2] (setting [4]), 25 to 50%; in assay [3] (setting [5]), 25 to 50%. The compound also returned an EC50 in assay [3] of 100 to 1000 nM.
Take `Cc1cccc(N2CCN(CCCCOc3ccc4cccc(O)c4n3)CC2)c1C` [Compound 7, 2-(4-(4-(2,3-dimethylphenyl)piperazin-1-yl)butoxy)quinolin-8-ol]: the values for the 50% inhibitory concentration (IC50) in assay [1] and in assay [2] were 100 to 1000 nM and 10 to 100 nM, respectively. Further, the Emax in assay [1] is over 75%; in assay [2] (setting [4]), 25 to 50%; in assay [3] (setting [5]), under 10%. This compound came in with an EC50 in assay [3] of over 10000 nM.
Turning to `Oc1cccc2ccc(OCCCCN3CCN(c4ccccn4)CC3)nc12` [Compound 8, 2-(4-(4-(pyridin-2-yl)piperazin-1-yl)butoxy)quinolin-8-ol], the IC50 in assay [1] was over 10000 nM; in assay [2] it was under 10 nM. The Emax in assay [1] was under 10%; in assay [2] (setting [4]), over 75%; in assay [3] (setting [5]), over 75%. In assay [3], this compound showed an EC50 of 10 to 100 nM.
For the compound `COc1cccnc1N1CCN(CCCCOc2ccc3cccc(O)c3n2)CC1` [Compound 9, 2-(4-(4-(3-methoxypyridin-2-yl)piperazin-1-yl)butoxy)quinolin-8-ol], the values for the IC50 in assay [1] and in assay [2] were 10 to 100 nM and under 10 nM, respectively. Besides, the Emax in assay [1] is over 75%; in assay [2] (setting [4]), 25 to 50%; in assay [3] (setting [5]), under 10%. Besides, in assay [3], the EC50 is over 10000 nM.
`CCOc1cccnc1N1CCN(CCCCOc2ccc3cccc(O)c3n2)CC1` [Compound 10, 2-(4-(4-(3-ethoxypyridin-2-yl)piperazin-1-yl)butoxy)quinolin-8-ol]: the IC50 is 10 to 100 nM in assay [1] and under 10 nM in assay [2]. The Emax was over 75% in assay [1], 25 to 50% in assay [2] (setting [4]) and 10 to 25% in assay [3] (setting [5]). Also, the EC50 in assay [3] was under 10 nM.
Regarding `CCCOc1cccnc1N1CCN(CCCCOc2ccc3cccc(O)c3n2)CC1` [Compound 11, 2-(4-(4-(3-propoxypyridin-2-yl)piperazin-1-yl)butoxy)quinolin-8-ol], the 50% inhibitory concentration (IC50) is 100 to 1000 nM in assay [1] and over 10000 nM in assay [2]. For the same compound, the results for the Emax in assay [1], in assay [2] (setting [4]) and in assay [3] (setting [5]) were over 75%, under 10% and under 10%, respectively. The same compound came in with an EC50 in assay [3] of over 10000 nM.
Take `Oc1cccc2ccc(OCCCCN3CCc4ccccc4C3)nc12` [Compound 12, 2-(4-(3,4-dihydroisoquinolin-2(1H)-yl)butoxy)quinolin-8-ol]: the IC50 in assay [1] is 1000 to 10000 nM; in assay [2] it was over 10000 nM. Also, the Emax is over 75% in assay [1], under 10% in assay [2] (setting [4]) and 10 to 25% in assay [3] (setting [5]). The compound further registered an EC50 in assay [3] of 10 to 100 nM.
Consider `COc1ccc2c(c1)CCN(CCCCOc1ccc3cccc(O)c3n1)C2` [Compound 13, 2-(4-(6-methoxy-3,4-dihydroisoquinolin-2(1H)-yl)butoxy)quinolin-8-ol], for which the IC50 is 1000 to 10000 nM in assay [1] and over 10000 nM in assay [2]. The Emax is over 75% in assay [1], under 10% in assay [2] (setting [4]) and 10 to 25% in assay [3] (setting [5]). Moreover, the EC50 in assay [3] is under 10 nM.
Consider `Oc1cccc2ccc(OCCCCN3CCc4cc(Cl)ccc4C3)nc12` [Compound 14, 2-(4-(6-chloro-3,4-dihydroisoquinolin-2(1H)-yl)butoxy)quinolin-8-ol], for which the IC50 in assay [1] is 1000 to 10000 nM; in assay [2] it was over 10000 nM. The Emax in assay [1] was over 75%; in assay [2] (setting [4]), under 10%; in assay [3] (setting [5]), under 10%. In assay [3], this compound returned an EC50 of over 10000 nM.
In the case of `N#Cc1ccc2c(c1)CCN(CCCCOc1ccc3cccc(O)c3n1)C2` [Compound 15, 2-(4-((8-hydroxyquinolin-2-yl)oxy)butyl)-1,2,3,4-tetrahydroisoquinoline-6-carbonitrile], the IC50 in assay [1] is 1000 to 10000 nM; in assay [2] it was over 10000 nM. In addition, the figures for the Emax in assay [1], in assay [2] (setting [4]) and in assay [3] (setting [5]) were over 75%, under 10% and under 10%, respectively. The EC50 in assay [3] was over 10000 nM.
In the case of `Oc1cccc2ccc(OCCCCN3CCc4cc(F)ccc4C3)nc12` [Compound 16, 2-(4-(6-fluoro-3,4-dihydroisoquinolin-2(1H)-yl)butoxy)quinolin-8-ol], the IC50 in assay [1] was 100 to 1000 nM; in assay [2], over 10000 nM. For the same compound, the Emax in assay [1] is over 75%; in assay [2] (setting [4]), under 10%; in assay [3] (setting [5]) it was under 10%. Further, the EC50 in assay [3] is over 10000 nM.
Turning to `Oc1cccc2ccc(OCCCCN3CCc4cc(C(F)(F)F)ccc4C3)nc12` [Compound 17, 2-(4-(6-(trifluoromethyl)-3,4-dihydroisoquinolin-2(1H)-yl)butoxy)quinolin-8-ol], the IC50 in assay [1] is 1000 to 10000 nM; in assay [2], over 10000 nM. Further, the values for the Emax in assay [1], in assay [2] (setting [4]) and in assay [3] (setting [5]) were over 75%, under 10% and under 10%, respectively. The EC50 in assay [3] was over 10000 nM.
For the compound `Oc1cccc2ccc(OCCCCN3CCc4sccc4C3)nc12` [Compound 18, 2-(4-(6,7-dihydrothieno[3,2-c]pyridin-5(4H)-yl)butoxy)quinolin-8-ol], the values for the IC50 in assay [1] and in assay [2] were 1000 to 10000 nM and over 10000 nM, respectively. Also, the Emax is over 75% in assay [1], under 10% in assay [2] (setting [4]) and under 10% in assay [3] (setting [5]). The same compound showed an EC50 in assay [3] of over 10000 nM.
For `Oc1cccc2ccc(OCCCCN3CCc4ccsc4C3)nc12` [Compound 19, 2-(4-(4,5-dihydrothieno[2,3-c]pyridin-6(7H)-yl)butoxy)quinolin-8-ol], the IC50 in assay [1] is 1000 to 10000 nM; in assay [2], over 10000 nM. Further, the Emax in assay [1] is over 75%; in assay [2] (setting [4]), under 10%; in assay [3] (setting [5]) it was under 10%. This compound also had an EC50 in assay [3] of over 10000 nM.
Turning to `Oc1cccc2ccc(OCCCCN3CCc4c(Cl)cccc4C3)nc12` [Compound 20, 2-(4-(5-chloro-3,4-dihydroisoquinolin-2(1H)-yl)butoxy)quinolin-8-ol], the results for the IC50 in assay [1] and in assay [2] were over 10000 nM and 10 to 100 nM, respectively. Moreover, the Emax in assay [1] was under 10%; in assay [2] (setting [4]), 50 to 75%; in assay [3] (setting [5]), over 75%. Further, the EC50 in assay [3] was in the range of 100 to 1000 nM.
Take `Oc1cccc2ccc(OCCCCN3CCc4cccc(C(F)(F)F)c4C3)nc12` [Compound 21, 2-(4-(8-(trifluoromethyl)-3,4-dihydroisoquinolin-2(1H)-yl)butoxy)quinolin-8-ol]: the IC50 in assay [1] is 100 to 1000 nM; in assay [2], under 10 nM. Moreover, the results for the Emax in assay [1], in assay [2] (setting [4]) and in assay [3] (setting [5]) were over 75%, 25 to 50% and under 10%, respectively. In assay [3], this compound showed an EC50 of over 10000 nM.
As for `N#Cc1cccnc1N1CCN(CCCCOc2ccc3cccc(O)c3n2)CC1` [Compound 22, 2-(4-(4-((8-hydroxyquinolin-2-yl)oxy)butyl)piperazin-1-yl)nicotinonitrile], the IC50 is 100 to 1000 nM in assay [1] and under 10 nM in assay [2]. The Emax in assay [1], in assay [2] (setting [4]) and in assay [3] (setting [5]) was 25 to 50% in each case. This compound also yielded an EC50 in assay [3] of 10 to 100 nM.
Turning to `CCCN[C@H]1CCc2nc(N)sc2C1` [pramipexole, reference compound], the Emax in assay [2] (setting [6]) and in assay [3] (setting [7]) was at least 90% in each case.
As to `CCCN(CCC)CCc1cccc2c1CC(=O)N2` [ropinirole, reference compound], the Emax in assay [2] (setting [6]) and in assay [3] (setting [7]) was at least 90% each time.
